Source: paper PMC11373198, “In vitro efficacy of next-generation dihydrotriazines and biguanides against babesiosis and malaria parasites” (Antimicrobial Agents and Chemotherapy, 2024)
Like-named read-outs stand apart in the source and are kept apart here.

Assays:
[1] = tested on: B. duncani (WA-1); assay: In vitro growth inhibition of B. duncani in human erythrocytes (SYBR Green-I); format: cell-based, Babesia duncani; settings: for IC50: 60 h; for activity against B. duncani, structure-activity relationship: analogs compared within screening, 2-chloro, 4-trifluoromethoxy series or terminal aryl heterocycles
[2] = tested on: B. divergens (Rouen87); assay: In vitro growth inhibition of B. divergens in human erythrocytes (SYBR Green-I); format: cell-based; settings: Babesia divergens, Erythrocyte, DFS20 medium
Procedure: (§1) The effect of DHT derivatives on the intraerythrocytic development of P. falciparum, B. duncani, B. divergens and B. MO1 and the determination of IC50 values were conducted as previously reported ([54], [67]). Briefly, the parasites cultured in vitro (0.1% parasitemia with 5% hematocrit in complete DFS20 medium or RPMI-1640) were treated with various concentrations of the compounds in a 96-well plate and incubated at 37 °C for either 60 h in the case of B. duncani or 72 h in the case of P. falciparum. Parasitemia was then determined using the SYBR Green-I method by adding an equal volume of parasite culture to the lysis buffer (0.008% saponin, 0.08% Triton-X-100, 20 mM Tris-HCl (pH = 7.5), and 5 mM EDTA) containing SYBR Green-I (0.01%). The mixture was then incubated at 37°C for 1 h in the dark. The fluorescence was measured at 480 nm (excitation) and 540 nm (emission) using a BioTek Synergy™ Mx Microplate Reader. Background fluorescence from uninfected erythrocytes maintained in a complete DFS20 and RPMI-1640 medium was subtracted from each sample, and the 50% inhibitory concentration (IC50) of the drug was determined by plotting drug concentrations versus parasite growth using GraphPad Prism 9.2.1. Data are shown as mean ± SD from two biological replicates with three technical replicates.

[3] = tested on: B. MO1; assay: In vitro growth inhibition of B. MO1 in human erythrocytes (SYBR Green-I); format: cell-based, Babesia MO1; settings: DFS20 medium
Procedure: as §1

[4] = tested on: P. falciparum 3D7; assay: In vitro growth inhibition of P. falciparum 3D7 (SYBR Green-I); format: cell-based, Plasmodium falciparum
[5] = tested on: P. falciparum Dd2; assay: In vitro growth inhibition of P. falciparum Dd2 (SYBR Green-I); format: cell-based, Plasmodium falciparum; settings: DFS20 medium, read-out: PfDd2 (IC50 in nM)
[6] = tested on: P. falciparum HB3; assay: In vitro growth inhibition of P. falciparum HB3 (SYBR Green-I); format: cell-based, Plasmodium falciparum; settings: DFS20 medium, read-out: PfHB3 (IC50 in nM)
[7] = tested on: human cell lines (HepG2, HCT-116, HEK-293, and HeLa); assay: Cytotoxicity on human cell lines, average / overall, and therapeutic index; format: cell-based; settings: HepG2, HCT-116, HEK-293, HeLa, MTT 72 h
Procedure: HeLa, HepG2, HEK293, and HCT116 cell lines were obtained from the American Type Culture Collection (ATCC) and maintained in Dulbecco’s modified Eagle’s medium (DMEM) (Invitrogen 11995–065) containing 25 mM glucose, 1 mM sodium pyruvate, and supplemented with 5 mM HEPES, 10% FBS, and penicillin-streptomycin (50 U/mL penicillin, 50 µg/mL streptomycin). Cells were seeded in a 96-well tissue culture plate (20,000 cells per well) and allowed to adhere for 24 hours, after which they were treated with a 12-step 2-fold serial dilution of each drug starting at 1 mM as the highest final concentration. Cells maintained in the medium supplemented with either 0.1% or 10% DMSO were used as negative and positive vehicle controls, respectively. The plates were incubated at 37 °C for 72 h, after which each well was incubated with 0.5 mg/mL of MTT reagent (MP Chemicals #02102227) for 4 h in the dark at 37 °C. The formazan crystals formed by living cells were solubilized with the addition of 100 µL of DMSO to each well. We measured the OD590nm using a SpectraMax plate reader. From the obtained OD values, percent cell viability was estimated by normalizing to the mean of 10% DMSO wells (set as 100% toxicity) and mean of the vehicle control wells (set as 0% toxicity). Dose-response curves were plotted using GraphPad Prism version 9.1.2.

[8] = tested on: Babesia gibsoni; design: method as in PMID 18794380, PMID 21904052; settings: cited from earlier work
[9] = tested on: Babesia bovis; design: method as in PMID 18794380, PMID 21904052; settings: cited from earlier work
[10] = tested on: B. microti; design: method as in PMID 7447406; settings: Mongolian jirds; cited from earlier work
[11] = tested on: B. duncani; design: method as in PMID 37055610; settings: previous studies; read-out: IC50 against B. duncani; cited from earlier work
[12] = Babesia duncani, Erythrocyte, read-out: B. duncani WA1 (IC50 in nM), DFS20 medium, 60 h
[13] = Plasmodium falciparum, 3D7, 72 h, DFS20 medium, 72 h, read-out: Pf3D7 (IC50 in nM)
[14] = Plasmodium falciparum, 3D7, DFS20, Table S3, read-out: P.falciparum 3D7 (IC50 in nM), DFS20
[15] = Plasmodium falciparum, 3D7, RPMI-1640 + 10% human serum, read-out: P.falciparum 3D7 (IC50 in nM), RPMI-1640 + 10%human serum
[16] = Plasmodium falciparum, DD2, 72 h
[17] = Plasmodium falciparum, HB3, 72 h

`CCC(C)C1(C)N=C(N)N=C(N)N1OCCCOc1cc(Cl)c(Cl)cc1Cl` (centres unmarked) [JPC-2748] showed an IC50 [1, 12] of 4.4 ± 0.01 nM, an IC50 [2] of 3.7 ± 0.3 nM and an IC50 ([3]; Babesia, Erythrocyte) of 4 ± 0.74 nM. The IC50 [4, 13] was 3 ± 0.77 nM, the IC50 [4, 14] was 0.2 ± 0.12 nM and the IC50 [4, 15] was 2 ± 0.061 nM. For the same compound, the IC50 [5, 16] was 12 ± 1.13 nM, the IC50 [6, 17] was 0.41 ± 0.07 nM and the IC50 [7] was 1.5 µM.

In the case of `CN(Cc1cnc2nc(N)nc(N)c2n1)c1ccc(C(=O)N[C@@H](CCC(=O)O)C(=O)O)cc1` [methotrexate], the “inhibition of in vitro parasite growth of Babesia gibsoni” value (“inhibition … of Babesia gibsoni” for short) [8] is listed as “moderate to effective inhibition” and the “inhibition of in vitro parasite growth of Babesia bovis” value (“inhibition … of Babesia bovis” below) [9] is listed as “moderate to effective inhibition”.

In the case of `NC1=NC(c2cccnc2)N(OCCCOc2ccc(OC(F)(F)F)cc2Cl)C(N)=N1` (centres unmarked) [JPC-3681], the IC50 [1, 12] is reported as 2 ± 0.2 nM, the “activity against B. duncani, structure-activity relationship” value (“activity against B. duncani” for short) [1] is reported as “increased activity” and the IC50 [2] is reported as 6.4 ± 0.7 nM. For the same compound, the IC50 ([3]; Babesia, Erythrocyte) was 1 ± 0.07 nM, the IC50 [4, 13] was 2.3 ± 0.3 nM and the IC50 [4, 14] was 0.7 ± 0.072 nM. The IC50 [4, 15] was 1 ± 0.08 nM, the IC50 [5, 16] was 0.45 ± 0.03 nM and the IC50 [6, 17] was 0.8 ± 0.07 nM. It also gave an IC50 [7] of 38 µM.

In the case of `Cc1cc(NS(=O)(=O)c2ccc(N)cc2)no1` [sulfamethoxazole], the “activity against B. microti infection” value [10] is given as “little to no activity”.

In the case of `CCc1nc(N)nc(N)c1-c1ccc(Cl)cc1` [pyrimethamine, 2,4-Diamino-5-(4-chlorophenyl)−6-ethylpyrimidine], the IC50 [11] is listed as 940 nM, the “activity against B. microti infection” value [10] is listed as “little to no activity” and the “inhibition … of Babesia gibsoni” value [8] is listed as “moderate to effective inhibition”. For the same compound, the “inhibition … of Babesia bovis” value [9] was “moderate to effective inhibition”.

`COc1ccc(OCCCON2C(N)=NC(N)=NC2(C)C)cc1` [JPC-1044] gave an IC50 [1, 12] of 7.1 ± 0.32 nM, an IC50 [2] of 12 ± 0.16 nM and an IC50 ([3]; Babesia, Erythrocyte) of 0.2 ± 0.15 nM. The IC50 [4, 13] was 3.3 ± 2 nM, the IC50 [4, 14] was 2 ± 0.02 nM and the IC50 [4, 15] was 3.8 ± 0.022 nM. The IC50 [5, 16] was 0.6 ± 0.14 nM, the IC50 [6, 17] was 0.42 ± 0.25 nM and the IC50 [7] was 62 µM.

For `CC1(C)N=C(N)N=C(N)N1OCCCOc1ccc(-n2cncn2)cc1` [JPC-1059], the IC50 [1, 12] was 10.3 ± 0.7 nM, the “activity against B. duncani” value [1] was “beneficial” and the IC50 [2] was 3.7 ± 0.7 nM. The IC50 ([3]; Babesia, Erythrocyte) was 5.4 ± 1.4 nM, the IC50 [4, 13] was 2 ± 0.64 nM and the IC50 [4, 14] was 1.3 ± 0.09 nM. It also gave an IC50 [4, 15] of 1.4 ± 0.021 nM, an IC50 [5, 16] of 0.3 ± 0.02 nM and an IC50 [6, 17] of 0.3 ± 0.17 nM. The IC50 [7] was 132 µM.

For `CC1(C)N=C(N)N=C(N)N1OCCCOc1ccc(-c2nnnn2C(C)(C)C)cc1` [JPC-3671], the IC50 [1, 12] was 1.6 ± 0.5 nM, the “activity against B. duncani” value [1] was “beneficial” and the IC50 [2] was 24 ± 2.14 nM. For the same compound, the IC50 ([3]; Babesia, Erythrocyte) was 6.5 ± 0.7 nM, the IC50 [4, 13] was 1 ± 0.32 nM and the IC50 [4, 14] was 2.1 ± 0.016 nM. The IC50 [4, 15] was 2.6 ± 0.02 nM, the IC50 [5, 16] was 17 ± 1.5 nM and the IC50 [6, 17] was 0.4 ± 0.02 nM. The IC50 [7] was 38 µM.

Compound `CC1(C)N=C(N)N=C(N)N1OCCCOc1ccccc1OC(F)(F)F` [JPC-2060] has an IC50 [1, 12] of about 0.8 nM, an IC50 ([1]; read-out: B. duncani WA1 (IC50 in nM), DFS20 medium) of 1 ± 0.06 nM and an IC50 [2] of about 4 nM. It also gave an IC50 ([3]; Babesia, Erythrocyte) of about 0.5 nM, an IC50 [3] of 0.6 ± 0.07 nM and an IC50 ([4]; DFS20 medium, 72 h, read-out: Pf3D7 (IC50 in nM)) of 2.3 ± 0.5 nM. The IC50 [4, 13] was about 1.9 nM, the IC50 [4, 14] was 1.9 ± 0.29 nM and the IC50 [4, 15] was 0.8 ± 0.17 nM. For the same compound, the IC50 ([5]; 72 h) was 0.77 ± 0.4 nM, the IC50 [5, 16] was about 0.4 nM and the IC50 ([6]; 72 h) was 0.7 ± 0.1 nM. It also gave an IC50 [6, 17] of about 0.6 nM and an IC50 [7] of 15 µM.

For `Nc1ccc(S(=O)(=O)c2ccc(N)cc2)cc1` [dapsone], the “activity against B. microti infection” value [10] is given as “little to no activity”.

In the case of `CC1(C)N=C(N)N=C(N)N1OCCCOc1ccc(Cl)cc1Cl` [JPC-210], the IC50 [1, 12] is reported as 3.6 ± 0.42 nM, the IC50 [2] is reported as 3.1 ± 1.42 nM and the IC50 ([3]; Babesia, Erythrocyte) is reported as 0.8 ± 0.24 nM. The IC50 [4, 13] was 3.1 ± 1.24 nM, the IC50 [4, 14] was 1.6 ± 0.025 nM and the IC50 [4, 15] was 1.2 ± 0.1 nM. It also gave an IC50 [5, 16] of 0.05 ± 0.01 nM, an IC50 [6, 17] of 0.4 ± 0.07 nM and an IC50 [7] of 69 µM.

In the case of `COc1cc(Cc2cnc(N)nc2N)cc(OC)c1OC` [trimethoprim], the “activity against B. microti infection” value [10] is given as “little to no activity”, the “inhibition … of Babesia gibsoni” value [8] is given as “moderate to effective inhibition” and the “inhibition … of Babesia bovis” value [9] is given as “moderate to effective inhibition”.

`CC1(C)N=C(N)N=C(N)N1OCCCOc1ccc(Cl)c(C#N)c1` [JPC-2053] gave an IC50 [1, 12] of 13.4 ± 1.41 nM, an IC50 [2] of 6.6 ± 1.7 nM and an IC50 ([3]; Babesia, Erythrocyte) of 0.6 ± 0.5 nM. For the same compound, the IC50 [4, 13] was 2.6 ± 1.51 nM, the IC50 [4, 14] was 1.5 ± 0.071 nM and the IC50 [4, 15] was 1.4 ± 0.021 nM. It also gave an IC50 [5, 16] of 0.5 ± 0.045 nM, an IC50 [6, 17] of 0.75 ± 0.34 nM and an IC50 [7] of 26 µM.

For `NC1=NC(c2ccc(F)cc2)N(OCCCOc2ccc(OC(F)(F)F)cc2Cl)C(N)=N1` (centres unmarked) [JPC-3680], the IC50 [1, 12] was 3.2 ± 0.21 nM, the “activity against B. duncani” value [1] was “increased activity” and the IC50 [2] was 40 ± 0.7 nM. It also gave an IC50 ([3]; Babesia, Erythrocyte) of 6 ± 0.5 nM, an IC50 [4, 13] of 1.7 ± 0.7 nM and an IC50 [4, 14] of 1.2 ± 0.03 nM. It also gave an IC50 [4, 15] of 1.8 ± 0.3 nM, an IC50 [5, 16] of 37 ± 1.25 nM and an IC50 [6, 17] of 2.1 ± 0.33 nM. For the same compound, the IC50 [7] was 10 µM.
